Assays:
Type in all cases: in vivo
[1] = tested on: Surinam grass (Brachiaria decumbens); test: Test B postemergence; conditions: 13 to 15 days
Procedure, shortened: (§1)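 Greenhouse test: chemicals are formulated in a surfactant-containing non-phytotoxic solvent and applied either preemergence to planted seeds or postemergence to plants 2 to 18 cm tall. Response is rated visually versus controls after 13 to 15 days, 0 meaning no effect and 100 complete control.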

[2] = tested on: barnyardgrass (Echinochloa crus-galli); test: Test B postemergence; conditions: 13 to 15 days
Procedure, shortened: as §1

[3] = tested on: blackgrass (Alopecurus myosuroides); test: Test B postemergence; conditions: 13 to 15 days
Procedure, shortened: as §1

[4] = tested on: corn (Zea mays); test: Test B postemergence; conditions: 13 to 15 days
Procedure, shortened: as §1

[5] = tested on: crabgrass (Digitaria sanguinalis); test: Test B postemergence; conditions: 13 to 15 days
Procedure, shortened: as §1

[6] = tested on: giant foxtail (Setaria faberii); test: Test B postemergence; conditions: 13 to 15 days
Procedure, shortened: as §1

[7] = tested on: lambsquarters (Chenopodium album); test: Test B postemergence; conditions: 13 to 15 days
Procedure, shortened: as §1

[8] = tested on: morning glory (Ipomoea hederacea); test: Test B postemergence; conditions: 13 to 15 days
Procedure, shortened: as §1

[9] = tested on: pigweed (Amaranthus retroflexus); test: Test B postemergence; conditions: 13 to 15 days
Procedure, shortened: as §1

[10] = tested on: velvetleaf (Abutilon theophrasti); test: Test B postemergence; conditions: 13 to 15 days
Procedure, shortened: as §1

[11] = tested on: wheat (Triticum aestivum); test: Test B postemergence; conditions: 13 to 15 days
Procedure, shortened: as §1

[12] = tested on: wild oat (Avena fatua); test: Test B postemergence; conditions: 13 to 15 days
Procedure, shortened: as §1

[13] = tested on: Surinam grass (Brachiaria decumbens); test: Test B preemergence
Procedure, shortened: as §1

[14] = tested on: barnyardgrass (Echinochloa crus-galli); test: Test B preemergence
Procedure, shortened: as §1

[15] = tested on: cocklebur (Xanthium strumarium); test: Test B preemergence
Procedure, shortened: as §1

[16] = tested on: corn (Zea mays); test: Test B preemergence
Procedure, shortened: as §1

[17] = tested on: crabgrass (Digitaria sanguinalis); test: Test B preemergence
Procedure, shortened: as §1

[18] = tested on: giant foxtail (Setaria faberii); test: Test B preemergence
Procedure, shortened: as §1

[19] = tested on: lambsquarters (Chenopodium album); test: Test B preemergence
Procedure, shortened: as §1

[20] = tested on: morning glory (Ipomoea hederacea); test: Test B preemergence
Procedure, shortened: as §1

[21] = tested on: pigweed (Amaranthus retroflexus); test: Test B preemergence
Procedure, shortened: as §1

[22] = tested on: rice (Oryza saliva); test: Test B preemergence
Procedure, shortened: as §1

[23] = tested on: velvetleaf (Abutilon theophrasti); test: Test B preemergence
Procedure, shortened: as §1

[24] = tested on: Sunflower; test: Test C preemergence; conditions: scale 0 to 100, 0 no effect, 100 complete control
[25] = tested on: cocklebur (Xanthium strumarium); test: Test B postemergence; conditions: 13 to 15 days
Procedure, shortened: as §1

[26] = Rate 125 g/ha, scale 0 (no effect) to 100 (complete control)
[27] = Rate 500 g/ha, scale 0 to 100, 0 is no effect, 100 is complete control
[28] = Preemergence, Rate 500 g/ha, scale 0 to 100, 0 no effect, 100 complete control
[29] = preemergence, Rate 125 g/ha, scale of 0 to 100 where 0 is no effect and 100 is complete control, 13 to 15 days
[30] = preemergence, Rate 125 g/ha, scale 0 to 100, 0 no effect, 100 complete control

CC(C)(C)c1ccn(C2CCN(c3cccc([S+]([O-])C(F)(F)F)c3)C2=O)n1 (stereo not drawn) [Compound 101]
Plant response rating, Surinam grass [1, 26]: 0
Plant response rating, Surinam grass [1, 27]: 0
Plant response rating, Barnyardgrass [2, 26]: 0
Plant response rating, Barnyardgrass [2, 27]: 0
Plant response rating, Blackgrass [3, 26]: 0
Plant response rating, Blackgrass [3, 27]: 0
Plant response rating, Corn [4, 26]: 0
Plant response rating, Corn [4, 27]: 0
Plant response rating, Crabgrass [5, 26]: 0
Plant response rating, Crabgrass [5, 27]: 0
Plant response rating, Foxtail, Giant [6, 26]: 0
Plant response rating, Foxtail, Giant [6, 27]: 0
Plant response rating, Lambsquarters [7, 27]: 0
Plant response rating, Morningglory [8, 27]: 0
Plant response rating, Pigweed [9, 27]: 0
Plant response rating, Velvetleaf [10, 27]: 0
Plant response rating, Wheat [11, 27]: 0
Plant response rating, Wild Oat [12, 27]: 0
Plant response rating, Surinam grass [13, 28]: 80
Plant response rating, Surinam grass [13, 29]: 0
Plant response rating, Barnyardgrass [14, 28]: 100
Plant response rating, Barnyardgrass [14, 29]: 30
Plant response rating, Cocklebur [15, 28]: 0
Plant response rating, Cocklebur [15, 29]: 0
Plant response rating, Corn [16, 28]: 70
Plant response rating, Corn [16, 29]: 0
Plant response rating, Crabgrass [17, 28]: 100
Plant response rating, Crabgrass [17, 29]: 90
Plant response rating, Foxtail, Giant [18, 28]: 100
Plant response rating, Foxtail, Giant [18, 29]: 0
Plant response rating, Lambsquarters [19, 28]: 100
Plant response rating, Lambsquarters [19, 29]: 100
Plant response rating, Morningglory [20, 28]: 0
Plant response rating, Morningglory [20, 29]: 0
Plant response rating, Pigweed [21, 28]: 100
Plant response rating, Pigweed [21, 29]: 40
Plant response rating, Rice [22, 29]: 0
Plant response rating, Velvetleaf [23, 28]: 0
Plant response rating, Velvetleaf [23, 29]: 0
Plant response rating, Sunflower ([24]; Rate 250 g/ha): 30

CCC(CC)c1ccn(C2SCN(c3cccc(C(F)(F)F)c3)C2=O)n1 (stereo not drawn) [Compound 21]
Plant response rating, Surinam grass [1, 26]: 0
Plant response rating, Surinam grass [1, 27]: 0
Plant response rating, Barnyardgrass [2, 26]: 90
Plant response rating, Barnyardgrass [2, 27]: 100
Plant response rating, Blackgrass [3, 26]: 0
Plant response rating, Blackgrass [3, 27]: 0
Plant response rating, Cocklebur [25, 26]: 70
Plant response rating, Cocklebur [25, 27]: 80
Plant response rating, Corn [4, 26]: 0
Plant response rating, Corn [4, 27]: 0
Plant response rating, Crabgrass [5, 26]: 30
Plant response rating, Crabgrass [5, 27]: 70
Plant response rating, Foxtail, Giant [6, 26]: 20
Plant response rating, Foxtail, Giant [6, 27]: 60
Plant response rating, Lambsquarters [7, 26]: 100
Plant response rating, Lambsquarters [7, 27]: 100
Plant response rating, Morningglory [8, 26]: 70
Plant response rating, Morningglory [8, 27]: 80
Plant response rating, Pigweed [9, 26]: 70
Plant response rating, Pigweed [9, 27]: 90
Plant response rating, Velvetleaf [10, 26]: 20
Plant response rating, Velvetleaf [10, 27]: 60
Plant response rating, Wheat [11, 26]: 0
Plant response rating, Wheat [11, 27]: 0
Plant response rating, Wild Oat [12, 26]: 0
Plant response rating, Wild Oat [12, 27]: 0
Plant response rating, Surinam grass [13, 28]: 20
Plant response rating, Surinam grass [13, 30]: 20
Plant response rating, Barnyardgrass [14, 28]: 100
Plant response rating, Barnyardgrass [14, 30]: 60
Plant response rating, Cocklebur [15, 28]: 0
Plant response rating, Corn [16, 28]: 0
Plant response rating, Corn [16, 30]: 0
Plant response rating, Crabgrass [17, 28]: 100
Plant response rating, Crabgrass [17, 30]: 100
Plant response rating, Foxtail, Giant [18, 28]: 100
Plant response rating, Foxtail, Giant [18, 30]: 70
Plant response rating, Morningglory [20, 28]: 100
Plant response rating, Morningglory [20, 30]: 90
Plant response rating, Pigweed [21, 28]: 90
Plant response rating, Pigweed [21, 30]: 0
Plant response rating, Rice [22, 28]: 0
Plant response rating, Rice [22, 30]: 0
Plant response rating, Velvetleaf [23, 28]: 0
Plant response rating, Velvetleaf [23, 30]: 0
Plant response rating, Sunflower ([24]; Rate 125 g/ha): 70

CCC(CC)c1ccn(C2OCN(c3cccc(OC(F)(F)F)c3)C2=O)n1 (stereo not drawn) [Compound 68]
Plant response rating, Surinam grass [1, 26]: 20
Plant response rating, Surinam grass [1, 27]: 30
Plant response rating, Barnyardgrass [2, 26]: 90
Plant response rating, Barnyardgrass [2, 27]: 100
Plant response rating, Blackgrass [3, 26]: 0
Plant response rating, Blackgrass [3, 27]: 0
Plant response rating, Cocklebur [25, 26]: 50
Plant response rating, Cocklebur [25, 27]: 80
Plant response rating, Corn [4, 26]: 0
Plant response rating, Corn [4, 27]: 0
Plant response rating, Crabgrass [5, 26]: 90
Plant response rating, Crabgrass [5, 27]: 100
Plant response rating, Foxtail, Giant [6, 26]: 20
Plant response rating, Foxtail, Giant [6, 27]: 40
Plant response rating, Lambsquarters [7, 26]: 100
Plant response rating, Lambsquarters [7, 27]: 100
Plant response rating, Morningglory [8, 26]: 0
Plant response rating, Morningglory [8, 27]: 0
Plant response rating, Pigweed [9, 26]: 0
Plant response rating, Pigweed [9, 27]: 0
Plant response rating, Velvetleaf [10, 26]: 0
Plant response rating, Velvetleaf [10, 27]: 20
Plant response rating, Wheat [11, 26]: 0
Plant response rating, Wheat [11, 27]: 0
Plant response rating, Wild Oat [12, 26]: 0
Plant response rating, Wild Oat [12, 27]: 0
Plant response rating, Surinam grass [13, 28]: 0
Plant response rating, Surinam grass [13, 29]: 0
Plant response rating, Barnyardgrass [14, 28]: 100
Plant response rating, Barnyardgrass [14, 29]: 100
Plant response rating, Cocklebur [15, 28]: 0
Plant response rating, Cocklebur [15, 29]: 0
Plant response rating, Corn [16, 28]: 20
Plant response rating, Corn [16, 29]: 0
Plant response rating, Crabgrass [17, 28]: 20
Plant response rating, Foxtail, Giant [18, 28]: 20
Plant response rating, Lambsquarters [19, 28]: 100
Plant response rating, Lambsquarters [19, 29]: 100
Plant response rating, Morningglory [20, 28]: 0
Plant response rating, Morningglory [20, 29]: 0
Plant response rating, Pigweed [21, 28]: 100
Plant response rating, Pigweed [21, 29]: 100
Plant response rating, Rice [22, 28]: 30
Plant response rating, Rice [22, 29]: 0
Plant response rating, Velvetleaf [23, 28]: 0
Plant response rating, Velvetleaf [23, 29]: 0

O=C1C(n2ccc(C3CC3)n2)SCN1c1cccc(C(F)(F)F)c1 (stereo not drawn) [Compound 26]
Plant response rating, Surinam grass [1, 26]: 20
Plant response rating, Surinam grass [1, 27]: 20
Plant response rating, Barnyardgrass [2, 26]: 0
Plant response rating, Barnyardgrass [2, 27]: 80
Plant response rating, Blackgrass [3, 26]: 0
Plant response rating, Blackgrass [3, 27]: 0
Plant response rating, Cocklebur [25, 26]: 50
Plant response rating, Cocklebur [25, 27]: 60
Plant response rating, Corn [4, 26]: 0
Plant response rating, Corn [4, 27]: 70
Plant response rating, Crabgrass [5, 26]: 0
Plant response rating, Crabgrass [5, 27]: 20
Plant response rating, Foxtail, Giant [6, 26]: 20
Plant response rating, Foxtail, Giant [6, 27]: 50
Plant response rating, Lambsquarters [7, 26]: 80
Plant response rating, Lambsquarters [7, 27]: 80
Plant response rating, Morningglory [8, 26]: 0
Plant response rating, Morningglory [8, 27]: 10
Plant response rating, Pigweed [9, 26]: 0
Plant response rating, Pigweed [9, 27]: 60
Plant response rating, Velvetleaf [10, 26]: 20
Plant response rating, Velvetleaf [10, 27]: 20
Plant response rating, Wheat [11, 26]: 0
Plant response rating, Wheat [11, 27]: 0
Plant response rating, Wild Oat [12, 26]: 0
Plant response rating, Wild Oat [12, 27]: 0
Plant response rating, Surinam grass [13, 28]: 70
Plant response rating, Surinam grass [13, 30]: 40
Plant response rating, Barnyardgrass [14, 28]: 100
Plant response rating, Barnyardgrass [14, 30]: 100
Plant response rating, Cocklebur [15, 28]: 0
Plant response rating, Cocklebur [15, 30]: 0
Plant response rating, Corn [16, 28]: 70
Plant response rating, Corn [16, 30]: 10
Plant response rating, Crabgrass [17, 28]: 100
Plant response rating, Crabgrass [17, 30]: 100
Plant response rating, Foxtail, Giant [18, 28]: 100
Plant response rating, Foxtail, Giant [18, 30]: 100
Plant response rating, Lambsquarters [19, 28]: 100
Plant response rating, Lambsquarters [19, 30]: 100
Plant response rating, Morningglory [20, 28]: 0
Plant response rating, Morningglory [20, 30]: 0
Plant response rating, Pigweed [21, 28]: 100
Plant response rating, Pigweed [21, 30]: 100
Plant response rating, Rice [22, 28]: 80
Plant response rating, Rice [22, 30]: 40
Plant response rating, Velvetleaf [23, 28]: 0
Plant response rating, Velvetleaf [23, 30]: 0
